Common to all, as to format: biochemical
For experiment [1], the target named is T1, purified recombinant human FXIIIa (Homo sapiens, UniProt P00488).
T1 construct: purchased Zedira, Germany
T1 sequence (P00488 39-732 limits assumed): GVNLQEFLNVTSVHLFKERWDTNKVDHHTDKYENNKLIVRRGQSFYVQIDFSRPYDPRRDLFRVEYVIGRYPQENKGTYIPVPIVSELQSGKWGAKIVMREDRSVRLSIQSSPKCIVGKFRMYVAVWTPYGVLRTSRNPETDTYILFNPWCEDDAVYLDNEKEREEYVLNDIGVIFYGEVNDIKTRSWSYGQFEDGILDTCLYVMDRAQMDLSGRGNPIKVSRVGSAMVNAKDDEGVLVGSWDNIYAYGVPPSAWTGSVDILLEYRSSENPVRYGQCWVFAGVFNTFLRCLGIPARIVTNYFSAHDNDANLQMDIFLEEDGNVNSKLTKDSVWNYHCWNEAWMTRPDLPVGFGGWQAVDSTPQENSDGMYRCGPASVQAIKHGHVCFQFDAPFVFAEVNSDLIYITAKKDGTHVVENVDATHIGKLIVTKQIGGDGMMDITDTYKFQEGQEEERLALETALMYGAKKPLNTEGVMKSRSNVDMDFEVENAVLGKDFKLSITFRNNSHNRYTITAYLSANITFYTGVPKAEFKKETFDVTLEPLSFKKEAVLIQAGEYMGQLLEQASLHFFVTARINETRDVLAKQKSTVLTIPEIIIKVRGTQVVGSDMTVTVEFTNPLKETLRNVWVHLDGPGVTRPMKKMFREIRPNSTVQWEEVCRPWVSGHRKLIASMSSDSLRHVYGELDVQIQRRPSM
Nature of the experiment: Selectivity assay, FXIIIa, biotin X-cadaverine incorporation into N,N′-dimethylcasein (Example 4). Conditions: recombinant human FXIIIa 2 μg/ml, thrombin preactivated, 1 h at 37° C.; errors are SD; read-out: FACTOR XIII IC50. The procedure: (§1) TG transamidation activity and the effect of inhibitors on activity was measured by biotin X-cadaverine incorporation into N,N′-dimethylcasein. After coating 96 well plates with 100 μl of 10 mg/ml N,N′-dimethylcasein in 50 mM Tris-Cl, pH8 at 4° C. over night, plates were washed with TBS-0.05% Tween-20(v/v), pH 7.6 and TBS, pH 7.6, and either 100 μl purified recombinant human TG2 (2 μg/ml Zedira, Germany) or 100 μl purified recombinant human FXIIIa (2 μg/ml Zedira, Germany, preactivated by incubation with 0.01 U bovine thrombin/μg FXIII at room temperature for 30 minutes) in 50 mM Tris-HCl, pH7.4, containing 1 mM DTT, 10 mM CaCl2 and 0.1 μM biotin-cadaverine added into the coated wells containing the appropriate concentration of inhibitor. The reaction was allowed to proceed for 1 h at 37° C. The plate was then washed twice with TBS-Tween-20 (v/v), pH 7.6 and once with TBS, pH 7.6 before being blocked with 100 μl of blocking buffer (3% (w/v) BSA in TBS-Tween, pH 7.6) for 30 min at 37° C. After blocking, the wells were incubated with 100 μl HRP-conjugated ExtrAvidin peroxidase (Sigma-Aldrich, UK) in blocking buffer (1:1,000 dilution) for 1 h at 37° C. After another set of washes, TG2 activity was measured using Sigma Fast OPD, tablets dissolved in 20 ml of distilled H2O. The colour was developed by adding 2.5M H2SO4 and the absorbance at 490 nm measured using a microplate reader ELx808™. All inhibitors were dissolved in DMSO as a 100 mM solution prior to addition to the assay.

For experiment [2], the target named is T2, purified recombinant human TG2 (Homo sapiens, UniProt P21980).
T2 construct: purchased Zedira, Germany
T2 sequence (P21980 1-687): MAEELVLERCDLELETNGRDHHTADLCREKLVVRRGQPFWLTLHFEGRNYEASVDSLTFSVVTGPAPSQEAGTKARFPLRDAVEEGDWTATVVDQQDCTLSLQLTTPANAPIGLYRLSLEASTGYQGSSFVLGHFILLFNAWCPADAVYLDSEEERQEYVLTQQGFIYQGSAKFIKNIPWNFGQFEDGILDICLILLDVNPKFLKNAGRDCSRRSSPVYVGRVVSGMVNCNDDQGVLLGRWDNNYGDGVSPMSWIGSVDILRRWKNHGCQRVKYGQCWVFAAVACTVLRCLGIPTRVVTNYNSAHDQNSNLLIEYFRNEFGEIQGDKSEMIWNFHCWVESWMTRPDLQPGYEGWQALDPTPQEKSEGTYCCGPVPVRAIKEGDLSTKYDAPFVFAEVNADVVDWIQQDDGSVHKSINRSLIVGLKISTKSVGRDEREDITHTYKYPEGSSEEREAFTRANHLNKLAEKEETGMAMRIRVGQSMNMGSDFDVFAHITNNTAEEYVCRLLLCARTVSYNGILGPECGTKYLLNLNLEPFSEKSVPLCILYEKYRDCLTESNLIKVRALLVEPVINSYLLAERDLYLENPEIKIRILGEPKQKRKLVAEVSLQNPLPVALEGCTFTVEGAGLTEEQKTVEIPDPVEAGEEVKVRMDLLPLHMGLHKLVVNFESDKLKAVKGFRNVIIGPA
Put plainly: Selectivity assay, TG2, biotin X-cadaverine incorporation into N,N′-dimethylcasein (Example 4). Conditions: recombinant human TG2 2 μg/ml, 1 h at 37° C.; errors are SD. The procedure:
as §1

The target in experiment [3] is T3, purified recombinant human TG2 (tissue transglutaminase) (Homo sapiens, UniProt P21980).
T3 construct: purchased Zedira, Germany
T3 sequence (P21980 1-687): T2 sequence (P21980 1-687)
Nature of the experiment: TG2 transamidation activity, biotin X-cadaverine incorporation into N,N′-dimethylcasein (Example 2). Conditions: recombinant human TG2 400 ng/ml, 2 h at 37° C. The procedure: TG transamidation activity and the affect of inhibitors on activity was measured by biotin X-cadaverine incorporation into N,N′-dimethylcasein. After coating 96 well plates with 100 μl of 10 mg/ml N,N′-dimethylcasein in 50 mM Tris-Cl, pH8 at 4° C. over night, plates were washed with TBS-0.05% Tween-20(v/v), pH 7.6 and TBS, pH 7.6, and 100 μl purified recombinant human TG2 (400 ng/ml Zedira, Germany) (tissue transglutaminase) in 50 mM Tris-HCl, pH7.4, containing 1 mM DTT, 10 mM CaCl2 and 0.1 μM biotin-cadaverine added into the coated wells containing the appropriate concentration of inhibitor. The reaction was allowed to proceed for 2 h at 37° C. The plate was then washed twice with TBS-Tween-20 (v/v), pH 7.6 and once with TBS, pH 7.6 before being blocked with 100 μl of blocking buffer (3% (w/v) BSA in TBS-Tween, pH 7.6) for 30 min at 37° C. After blocking, the wells were incubated with 100 μl HRP-conjugated Extr-Avidin peroxidase (Sigma-Aldrich, UK) in blocking buffer (1:1,000 dilution) for 1 h at 37° C. After another set of washes, TG2 activity was measured using Sigma Fast OPD, tablets dissolved in 20 ml of distilled H2O. The colour was developed by adding 2.5 M H2SO4 and the absorbance at 490 nm measured using a microplate reader ELx808™. All inhibitors were dissolved in DMSO as a 100 mM solution prior to addition to the assay.

Structures are written as SMILES.

In general, IC50 refers to the concentration that gives 50% inhibition.

Turning to `C=CC(=O)N[C@H](Cc1ccccc1)C(=O)N1CCN(C(=O)OCc2ccccc2)CC1` [EB 1-131], the IC50 in experiment [1] is 13.5 ± 4.9 µM; in experiment [2] it was greater than 500 µM; in experiment [3], greater than 100 µM.
In the same order, the values of `C[S+](C)CC(=O)N[C@H](Cc1ccccc1)C(=O)N1CCN(C(=O)OCc2ccccc2)CC1` [EB 1-127] are 23.3 ± 5.5 µM, greater than 500 µM and greater than 100 µM.
As to `C[S+](C)CC(=O)N[C@@H](Cc1ccccc1)C(=O)N1CCN(C(=O)OCc2ccccc2)CC1` [EB 1-126], the IC50 in experiment [1] is 15.5 ± 6.3 µM; in experiment [2] it was greater than 500 µM; in experiment [3] it was greater than 100 µM.

These data come from patent publication US9656978B2, “Acylpiperazines as inhibitors of transglutaminase and their use in medicine” (ASTON UNIVERSITY, priority 2012, dated 2017).
